Data published in patent publication US12472179B2, “Combination of a CBP/p300 bromodomain inhibitor and a KRAS inhibitor for the treatment of cancer” (TOLREMO THERAPEUTICS AG, priority 2020, dated 2025).
Entries after “also recorded” stand apart in the source; their conditions may differ.

Key:
Type in all cases: cell-based
SNU-1411 cells [1] = experiment: Label-free determination of cell proliferation, SNU-1411 confluency, AMG510 (Example 6); settings: for cell proliferation (SNU-1411 confluency), drug alone: SNU-1411 (KRAS G12C), 32 days, single drug: 1 μM Compound A, 0.2 μM Compound C, 0.2 μM CCS1477, 1 μM FT-6876, 0.2 μM GNE-781, 300 nM AMG510; for development of drug resistance / re-growth, combined with AMG510: CBP/p300 bromodomain inhibitor combined with 300 nM AMG510
Method: (§1) 2000 SNU-1411 cells [KCLB; 01411, a CRC (rectal adenocarcinoma) cell line carrying a KRAS G12C mutation], were seeded into 96 well plates (Greiner BioOne 655090) one day prior to drug treatment in RPMI medium containing 10% FCS and 2 mM L-Glutamine. The next day, the wells were imaged label-free using brightfield imaging on a CELIGO Image Cytometer to determine the initial cell confluency. […] Plates were regularly imaged over weeks using brightfield mode (CELIGO Imaging Cytometer) to track cell confluency in each well over time. Growth medium and treatments were replenished twice weekly. […] Confluency was determined using CELIGO software's built-in “confluence” analysis tool in the brightfield mode.

SW837 cells = experiment: Label-free determination of cell proliferation, SW837 confluency, AMG510 (Example 8); settings: for cell proliferation (SW837 confluency), drug alone: SW837 (KRAS G12C), 49 days, single drug: 1 μM Compound A, 0.2 μM Compound C, 0.2 μM CCS1477, 1 μM FT-6876, 0.2 μM GNE-781, 100 nM AMG510; for development of drug resistance / re-growth, combined with AMG510: CBP/p300 bromodomain inhibitor combined with 100 nM AMG510
Method: 2000 SW837 cells [ATCC; CCL-235, a CRC (rectal adenocarcinoma) cell line carrying a KRAS G12C mutation], were seeded into 96 well plates (Greiner BioOne 655090) one day prior to drug treatment in RPMI medium containing 10% FCS and 2 mM L-Glutamine. The next day, the wells were imaged label-free using brightfield imaging on a CELIGO Image Cytometer to determine the initial cell confluency. […] Plates were regularly imaged over weeks using brightfield mode (CELIGO Imaging Cytometer) to track cell confluency in each well over time. Growth medium and treatments were replenished twice weekly. […] Confluency was determined using CELIGO software's built-in “confluence” analysis tool in the brightfield mode.

NCI-H358 cells = experiment: Label-free determination of cell proliferation, NCI-H358 cell number, AMG510 (Example 9)
Method: 2000 NCI-H358 cells [KCLB; 25807; a non-small cell lung cancer (NSCLC) cell line with KRAS G12C mutation] were seeded into 96 well plates (Greiner BioOne 655090) one day prior to drug treatment in RPMI medium containing 10% FCS and 2 mM L-Glutamine. The next day, the wells were imaged label-free using brightfield imaging on a CELIGO ImageCytometer to determine the initial cell number. […] The cells were regularly imaged over weeks using brightfield mode (CELIGO Imaging Cytometer) to track cell proliferation in each well over time. Growth medium and treatments were replenished twice weekly. […] Cell numbers were determined using CELIGO software's built-in “direct cell counting” analysis tool in the brightfield mode.

SNU-1411 cells [2] = experiment: Label-free determination of cell proliferation, SNU-1411 confluency, MRTX849 (Example 7); settings: for cell proliferation (SNU-1411 confluency), drug alone: SNU-1411 (KRAS G12C), 32 days, single drug: 1 μM Compound A, 0.2 μM Compound C, 0.2 μM CCS1477, 1 μM FT-6876, 0.2 μM GNE-781, 300 nM MRTX849; for development of drug resistance / re-growth, combined with MRTX849: SNU-1411, 32 days, CBP/p300 bromodomain inhibitor combined with 300 nM MRTX849
Method: as §1

Compound | cell proliferation (SNU-1411 confluency), drug alone (SNU-1411 cells [1]) | re-growth in long-term culture, AMG510 alone (SNU-1411 cells [1]; SNU-1411, 32 days, 300 nM AMG510 alone) | cell proliferation (SW837 confluency), drug alone (SW837 cells) | re-growth in long-term culture, AMG510 alone (SW837 cells; SW837, 49 days, 100 nM AMG510 alone) | cell proliferation (NCI-H358 cell number), drug alone (NCI-H358 cells; NCI-H358 (KRAS G12C), >20 days, single drug: 1 μM Compound A, 200 nM Compound C, 100 nM AMG510) | re-growth in long-term culture, AMG510 alone (NCI-H358 cells; NCI-H358, >20 days, 100 nM AMG510 alone) | development of drug resistance / re-growth, combined with AMG510 (SNU-1411 cells [1]; SNU-1411, 32 days) | cell proliferation (SNU-1411 confluency), drug alone (SNU-1411 cells [2]) | development of drug resistance / re-growth, combined with MRTX849 (SNU-1411 cells [2]) | development of drug resistance / re-growth, combined with AMG510 (SW837 cells; SW837, 49 days) | development of drug resistance / re-growth, combined with AMG510 (NCI-H358 cells; NCI-H358, >20 days, 1 μM Compound A or 200 nM Compound C combined with 100 nM AMG510)
C=CC(=O)N1CCN(c2nc(=O)n(-c3c(C)ccnc3C(C)C)c3nc(-c4c(O)cccc4F)c(F)cc23)[C@@H](C)C1 [AMG510] | delayed cell proliferation initially for few days | re-grew | initially prevented cell proliferation | re-grew | initially completely blocked cell proliferation | re-grew | – | – | – | – | –
CO[C@H]1CC[C@H](n2c([C@@H]3CCCC(=O)N3c3ccc(F)c(F)c3)nc3cc(-c4c(C)noc4C)ccc32)CC1 [CCS1477] | do not affect cell proliferation | – | do not affect cell proliferation | – | – | – | prevent the development of drug resistance | do not affect cell proliferation | prevent the development of drug resistance | prevent the development of drug resistance | –
CC(=O)N1C[C@H](c2nc(Nc3cccc(-c4cn(C)nn4)c3)cc(-c3cnccn3)n2)CC[C@@H]1C [Compound C, 1-((2S,5R)-2-methyl-5-(4-((3-(1-methyl-1H-1,2,3-triazol-4-yl)phenyl)amino)-6-(pyrazin-2-yl)pyrimidin-2-yl)piperidin-1-yl)ethan-1-one] | – | – | – | – | – | – | prevent the development of drug resistance | – | prevent the development of drug resistance | prevent the development of drug resistance | prevent the development of drug resistance; also recorded: completely prevented re-growth
COC(=O)N1c2ccc3c(nc(Cc4ccccc4)n3[C@H]3CCC[C@H](C(=O)O)C3)c2CC[C@@H]1C [FT-6876] | do not affect cell proliferation | – | do not affect cell proliferation | – | – | – | prevent the development of drug resistance | do not affect cell proliferation | prevent the development of drug resistance | prevent the development of drug resistance | –
CNC(=O)N1CCc2c(c(N3CCCc4cc(-c5cnn(C)c5)c(C(F)F)cc43)nn2C2CCOCC2)C1 [GNE-781] | do not affect cell proliferation | – | do not affect cell proliferation | – | – | – | prevent the development of drug resistance | do not affect cell proliferation | prevent the development of drug resistance | prevent the development of drug resistance | –
